The values below come from PMC11984407, “A natural small molecule isoginkgetin alleviates hypercholesterolemia and atherosclerosis by targeting ACLY” (Theranostics, 2025).

The subject of data set [1] is Apoe-/- mice. The data set can be described thus: Liver Acly knockdown by GalNAc-siAcly in Apoe-/- mice. The class given is in vivo, mouse. The method, then: Conjugating siRNA with N-acetylgalactosamine (GalNAc) is a promising strategy for depleting target gene expression specifically in the liver. […] In this study, we employed GalNAc-siAcly to knock down Acly in the liver of Apoe^-/- mice that were fed high cholesterol diet for 15 weeks. ISOGK was administered starting from the 7th week for 8 additional weeks (Figure 7A). […] The qRT-PCR results also supported the same conclusion (Figure S7A).
Figure 7 The anti-atherosclerotic and lipid-lowering effects of isoginkgetin in Apoe^-/- mice were ACLY-dependent. (A) Scheme of study design. Briefly, male Apoe^-/- mice were induced by high cholesterol diet for 7 weeks and administrated GalNAc-siAcly (3 mg/kg/month). Animals then received ISOGK (20 mg/kg/day) treatment for another 8 weeks. (B) Immunoblotting analysis and quantification of ACLY protein in liver and kidney tissues from indicated groups (n = 3). One-way ANOVA followed by Bonferroni's post hoc test. (C) Representative images of Oil Red O staining of en face aortas from male Apoe^-/- mice fed high cholesterol diet. (D) Representative images of ORO staining of the aortic sinus from male Apoe^-/- mice fed high cholesterol diet. (E) Representative images of H&E staining of the aortic sinus from male Apoe^-/- mice fed High cholesterol diet. (F) Quantitative analysis of C-E (n = 6 - 8). One-way ANOVA followed by Bonferroni's post hoc test. (G) Plasma levels of TC, TG, LDL-C and HDL-C in the indicated groups (n = 6 - 8). One-way ANOVA followed by Bonferroni's post hoc test. The data are means ± SEM, n.s., not significant, *P < 0.05, **P < 0.01, ***P < 0.001, ****P < 0.0001.

In data set [2] the test system is primary mouse hepatocytes. Description: Nile Red staining of primary hepatocytes from high fat diet mice. The conditions noted are these: varying concentrations, 12 h, hepatocytes from 16-week high fat diet mice. It is filed as cell-based. From the text:
Primary hepatocytes were isolated from male C57BL/6J mice fed a high-fat diet (HFD, 60 kcal% fat, 20 kcal% protein, 20 kcal% carbohydrate; D12492; RESEARCH DIETS, New Brunswick, NJ, USA) for 16 weeks according to our previous study. At the end of experiment, the mice were initially anaesthetized and subsequently subjected to perfusion with Liver Perfusion Medium (17701-038; Thermo Fisher Scientific, Waltham, MA, USA) via the portal vein, followed by Liver Digestion Medium (17701-034, Thermo Fisher Scientific, Waltham, MA, USA). Following perfusion, the liver was extracted and passed through a 100 μm cell strainer. The resulting cells were subjected to centrifugation at 50×g for 1 min, after which cells were incubated in DMEM supplemented with 10% FBS (F05-001-B160216; Bio-One Biotechnology, Guangzhou, China) and 1% penicillin-streptomycin (15140-122; Gibco by Invitrogen, Carlsbad, CA, USA) at 37 °C.
For the Nile Red staining procedure, primary mouse hepatocytes were treated with IOSGK at varying concentrations for a period of 12 h. Subsequently, the cells were fixed with 4% paraformaldehyde (PFA) and stained with Nile Red (N1142, Invitrogen, Carlsbad, CA, USA). The intracellular accumulation of lipids was visualized and quantified using a laser scanning confocal microscope (TCS SP8; Leica, Wetzlar, Germany).

In data set [3] the test system is C57BL/6J mice. The data set can be described thus: Safety assessment in normal C57BL/6J mice. Particulars: 20 mg/kg/day i.p., 4 weeks, male C57BL/6J. It is filed as in vivo, mouse.
Data set [4] deals with T1, hERG channel (Homo sapiens, UniProt Q12809).
T1 construct: expressed in transfected cells
T1 sequence (Q12809 whole entry): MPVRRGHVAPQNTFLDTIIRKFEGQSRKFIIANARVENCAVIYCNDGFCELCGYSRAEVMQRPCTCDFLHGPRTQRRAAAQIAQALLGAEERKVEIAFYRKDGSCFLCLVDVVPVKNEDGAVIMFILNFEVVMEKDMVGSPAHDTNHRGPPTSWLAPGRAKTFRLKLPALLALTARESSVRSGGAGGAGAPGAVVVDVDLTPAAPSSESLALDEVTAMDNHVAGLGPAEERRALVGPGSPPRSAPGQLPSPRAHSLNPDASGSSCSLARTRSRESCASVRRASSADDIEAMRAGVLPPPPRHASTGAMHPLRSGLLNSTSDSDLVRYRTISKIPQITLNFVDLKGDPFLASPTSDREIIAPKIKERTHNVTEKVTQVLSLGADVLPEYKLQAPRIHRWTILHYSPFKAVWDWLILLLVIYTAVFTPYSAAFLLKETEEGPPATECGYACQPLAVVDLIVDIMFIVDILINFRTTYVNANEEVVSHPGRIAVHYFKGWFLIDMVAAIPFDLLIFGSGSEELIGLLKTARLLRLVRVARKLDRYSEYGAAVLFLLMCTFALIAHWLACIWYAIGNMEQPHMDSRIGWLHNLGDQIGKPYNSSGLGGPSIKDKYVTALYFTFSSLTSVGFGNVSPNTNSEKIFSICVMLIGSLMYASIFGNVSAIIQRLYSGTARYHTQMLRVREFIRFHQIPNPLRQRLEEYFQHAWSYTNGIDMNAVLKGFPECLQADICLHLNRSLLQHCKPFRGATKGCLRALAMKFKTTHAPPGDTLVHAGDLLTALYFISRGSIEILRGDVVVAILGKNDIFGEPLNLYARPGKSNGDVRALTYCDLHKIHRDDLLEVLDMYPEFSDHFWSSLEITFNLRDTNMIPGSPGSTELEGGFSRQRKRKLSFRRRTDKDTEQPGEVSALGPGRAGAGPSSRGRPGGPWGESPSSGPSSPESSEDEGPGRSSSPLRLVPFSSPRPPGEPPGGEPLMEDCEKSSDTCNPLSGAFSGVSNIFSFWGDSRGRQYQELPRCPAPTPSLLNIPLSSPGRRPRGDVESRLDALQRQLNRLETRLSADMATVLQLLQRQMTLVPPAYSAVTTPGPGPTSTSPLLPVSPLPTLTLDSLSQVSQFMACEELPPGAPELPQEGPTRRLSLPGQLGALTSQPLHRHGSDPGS
The data set can be described thus: Manual whole-cell patch clamp on HEK cells stably expressing hERG. The class given is cell-based. The method, then: The whole-cell patch clamp technique was employed for the experiments. Previously published works detail the methodologies and solutions used for capturing various currents in cardiomyocytes and in HEK cell lines that stably express different K^+ channels. Specifically, the standard bath solution with 5 mM K^+ consisted of 135 mM NaCl, 5 mM KCl, 2 mM CaCl2, 1 mM MgCl2, 10 mM glucose, and 10 mM HEPES, adjusted to pH 7.4 using NaOH. Meanwhile, the bath solution containing 135 mM K^+ was made of 135 mM KCl, 2 mM CaCl2, 1 mM MgCl2, 10 mM glucose, and 10 mM HEPES, with the pH set to 7.4 by adding KOH. All experiments using the patch clamp method were conducted at a controlled room temperature of 22 ± 1 °C.
Background: Patch clamp records ionic current or voltage across a cell membrane.

The test system of data set [5] is primary mouse hepatocytes (PMH). The data set can be described thus: Nile red staining of PMH from Acly flox/flox mice infected with Cre adenovirus. The conditions noted are these: 5 µM, 12 h. The class given is cell-based. The method, then: For the Nile Red staining procedure, primary mouse hepatocytes were treated with IOSGK at varying concentrations for a period of 12 h. Subsequently, the cells were fixed with 4% paraformaldehyde (PFA) and stained with Nile Red ([…], Invitrogen, Carlsbad, CA, USA). The intracellular accumulation of lipids was visualized and quantified using a laser scanning confocal microscope (TCS SP8; Leica, Wetzlar, Germany). Male and female Acly^flox/flox mice were used to isolate PMH and infected with adenovirus vectors carrying either Cre or GFP for 24 h.

In data set [6] the test system is HepG2 cells. Description: DiI-LDL uptake assay. Particulars: HepG2, irrespective of dose or time. The class given is cell-based. The method, then:
HepG2 cells were cultured in 24-well plates and incubated in DMEM supplemented with 2% LPDS and 20 µg/mL DiI-LDL (20614ES76, YEASEN, Shanghai, China) for four h at 37 °C in the dark. Subsequently, the cells were rinsed twice with PBS containing 0.4% albumin and then washed three times with PBS. To quantify the fluorescence, 400 µL of isopropanol was added to each well, and the plates were incubated at room temperature for 20 min with continuous shaking. Subsequently, 200 µL aliquots were analyzed using a SpectraMax M2e Microplate Reader (Molecular Devices) at wavelengths of 520-570 nm, as previously described previously.

Data set [7] can be described thus: Pharmacokinetics study in ICR mice. The class given is in vivo, mouse. The method, then: Pharmacokinetic properties were investigated using ICR mice weighing between 18 and 22 grams. Six mice were assigned into two groups, with three in each group. ISOGK was administered via intragastric and tail vein injections. For both the intravenous and intragastric administration groups, cheek blood samples of approximately 0.05 mL were collected at 5 min, 15 min, 30 min, 1 h, 2 h, 4 h, 6 h, 8 h, and 24 h post-administration. The plasma concentration of compound in the mice was measured using the LC-MS/MS technique. Pharmacokinetic parameters were then analyzed using WinNonlin software.

For orientation: IC50 means the concentration that gives 50% inhibition. For the compound `COc1ccc(-c2cc(=O)c3c(O)cc(O)c(-c4cc(-c5cc(=O)c6c(O)cc(O)cc6o5)ccc4OC)c3o2)cc1` [ISOGK, Isoginkgetin], in data set [1] (Acly knockdown Apoe-/- mice), the “effect on atherosclerosis in aortic sinus” value is given as “not observed” and the “lipid-lowering effect (plasma TC, TG, LDL-C, HDL-C)” value was “not further observed”. Also, the aortic plaque area result in data set [1] (Acly knockdown group (GalNAc-siAcly), 20 mg/kg/day) was “not decreased further”. Besides, the “aortic sinus lesion areas and necrotic core area” value in data set [1] (control Apoe-/- mice, 20 mg/kg/day) was “significantly reduced”. For the same compound, the “size of aortic plaques vs vehicle” value in data set [1] (control Apoe-/- mice, 20 mg/kg/day, 8 weeks) is on record as “significantly lower”. For the same compound, the “hepatic lipid levels (Nile Red staining)” value in data set [2] is recorded as “reduced hepatic lipid levels”. Moreover, in data set [3], the “H&E staining of heart, liver, spleen, lungs, kidneys” value was “no histological differences”; the “PAS staining of kidney tissues” value is on record as “no significant difference in glycogen deposits”; the “body weight vs vehicle” value is “no statistically significant differences”; the “fasting blood glucose (FBG) vs vehicle” value is reported as “no statistically significant differences”. In addition, in data set [3], the “lactate dehydrogenase (LDH)” value is on record as “no variation”; the “ratio of liver weight to body weight” value is “no significant change”; the “serum ALT, AST, ALP, BUN, CREA, CK, CK-MB vs vehicle” value is “did not induce any significant difference”. For the same compound, in data set [4], the IC50 was greater than 30 µM. In addition, the “lipid deposition in PMH when ACLY abrogated or depleted (Nile red)” value in data set [5] is reported as “did not further diminish lipid deposition”. The DiI-LDL uptake entry in data set [6] was “no significant effect on LDL uptake”. In data set [7] (intravenous 5 mg/kg), this compound showed a peak plasma concentration of 710 ng/mL. In addition, the Tmax in data set [7] (mouse, plasma, intravenous 5 mg/kg, read-out: time of peak plasma concentration (converted)) was 5 min. Moreover, the “plasma levels after oral administration” value in data set [7] (oral 20 mg/kg) was “almost undetectable”. For the same compound, the oral bioavailability result in data set [7] (oral 20 mg/kg vs intravenous 5 mg/kg) is given as “low oral bioavailability”.
